What all share (type): functional
For one test, the system named is HCT-116. The test can be described thus: Antitumor activity against human HCT-116 cells incubated for 48 hrs.
The test system of another test is A549. The experiment in a line: Antitumor activity against human A549 cells incubated for 48 hrs.
A further test concerns Hs-578T. The experiment in a line: Antitumor activity against human Hs-578T cells incubated for 48 hrs.
The subject of test [1] is MDA-MB-231. The test can be described thus: Antitumor activity against human MDA-MB-231 cells incubated for 48 hrs in presence of 1.5% BSA by Celltiter Blue reagent based 3D microtiter assay.
The test system of test [2] is MDA-MB-231. The test can be described thus: Antitumor activity against human MDA-MB-231 cells incubated for 48 hrs by Celltiter Blue reagent based 2D microtiter assay.
The subject of test [3] is MDA-MB-231. The experiment in a line: Antitumor activity against human MDA-MB-231 cells incubated for 48 hrs by Celltiter Blue reagent based 3D microtiter assay.
Test [4] concerns MDA-MB-231. The experiment in a line: Antitumor activity against human MDA-MB-231 cells incubated for 48 hrs in presence of 1.5% BSA by Celltiter Blue reagent based 2D microtiter assay.

With `[2H]c1c(Oc2cc3c(cc2NC(=O)c2cc(OC)c(OC)c(OC)c2Cl)NC(=O)[C@H](CC(=O)N(CC)CC)NC3=O)c([2H])c(C([2H])([2H])[2H])c([2H])c1C([2H])([2H])[2H]`, the GI50 with HCT-116 was under 5 nM; with A549, 19.1 nM; in the test with Hs-578T, 27.7 nM.

On to `[2H]C([2H])([2H])Oc1cc(C(=O)Nc2cc3c(cc2Oc2cc(C)cc(C)c2)C(=O)N[C@@H](CC(=O)N(C)O)C(=O)N3)c(Br)c(OC([2H])([2H])[2H])c1OC([2H])([2H])[2H]`, for which the GI50 with HCT-116 is 15.6 nM; with A549 it was under 5 nM; in the test on Hs-578T, 8.6 nM.

Take `[2H]C([2H])([2H])C([2H])([2H])N(C(=O)C[C@@H]1NC(=O)c2cc(Oc3cc(C)cc(C)c3)c(NC(=O)c3cc(OC)c(OC)c(OC)c3Br)cc2NC1=O)C([2H])([2H])C([2H])([2H])[2H]`: the values for the GI50 in the test on HCT-116, in the test with A549 and in the test with Hs-578T were under 5 nM, under 5 nM and 16.1 nM, respectively.

As for `[2H]C([2H])([2H])C([2H])([2H])N(C(=O)C[C@H]1C(=O)Nc2cc(NC(=O)c3cc(OC)c(OC)c(OC)c3Br)c(Oc3cc(C)cc(C)c3)cc2C(=O)N1C)C([2H])([2H])C([2H])([2H])[2H]`, the GI50 in the test on HCT-116 was 15.6 nM; in the test with A549 it was under 5 nM; in the test with Hs-578T, under 5 nM.

For the molecule `[2H]C([2H])([2H])Oc1cc(C(=O)Nc2cc3c(cc2Oc2cc(C)cc(C)c2)C(=O)N[C@@H](CC(=O)N(C)OC)C(=O)N3)c(Br)c(OC([2H])([2H])[2H])c1OC([2H])([2H])[2H]`, the GI50 in the test on MDA-MB-231 [1] was 90.3 nM; in the test with HCT-116 it was 7.8 nM; in the test on A549 it was 4.9 nM; in the test with MDA-MB-231 [2], under 1 nM; in the test with Hs-578T it was under 5 nM; in the test on MDA-MB-231 [3], 251 nM. For the same molecule, in the test on MDA-MB-231 [4], the GI50 was under 1 nM.

Take `[2H]C([2H])([2H])Oc1cc(C(=O)Nc2cc3c(cc2Oc2cc(C)cc(C)c2)C(=O)N(C)[C@@H](CC(=O)N(C)C)C(=O)N3)c(Br)c(OC([2H])([2H])[2H])c1OC([2H])([2H])[2H]`: the GI50 with HCT-116, in the test on A549 and in the test with Hs-578T was under 5 nM in each case.

In the case of `[2H]C([2H])([2H])Oc1cc(C(=O)Nc2cc3c(cc2Oc2cc(C)cc(C)c2)C(=O)N[C@@H](CC(=O)N(C([2H])([2H])C([2H])([2H])[2H])C([2H])([2H])C([2H])([2H])[2H])C(=O)N3)c(Br)c(OC([2H])([2H])[2H])c1OC([2H])([2H])[2H]`, the GI50 was 14 nM in the test on MDA-MB-231 [1]; under 5 nM in the test with HCT-116; under 5 nM in the test with A549; under 1 nM with MDA-MB-231 [2]; under 5 nM in the test with Hs-578T; 64.1 nM in the test on MDA-MB-231 [3]. Further, in the test on MDA-MB-231 [4], the GI50 was under 1 nM.

Turning to `[2H]C([2H])([2H])Oc1cc(C(=O)Nc2cc3c(cc2Oc2cc(C)cc(C)c2)C(=O)N[C@@H](CC(=O)N(C([2H])([2H])[2H])C([2H])([2H])[2H])C(=O)N3)c(Br)c(OC([2H])([2H])[2H])c1OC([2H])([2H])[2H]`, the GI50 with HCT-116 is under 5 nM; with A549, 6.1 nM; in the test on Hs-578T, under 5 nM.

Consider `[2H]C([2H])([2H])c1cc(Oc2cc3c(cc2NC(=O)c2cc(OC)c(OC)c(OC)c2Cl)NC(=O)[C@H](CC(=O)N(CC)CC)NC3=O)cc(C([2H])([2H])[2H])c1`, for which the results for the GI50 with HCT-116, with A549 and with Hs-578T were under 5 nM, 11.6 nM and 30.1 nM, respectively.

As to `[2H]C([2H])([2H])Oc1c(OC)cc(C(=O)Nc2cc3c(cc2Oc2cc(C)cc(C)c2)C(=O)N[C@@H](CC(=O)N(CC)CC)C(=O)N3)c(Cl)c1OC`, the GI50 in the test with HCT-116 was under 5 nM; in the test with A549, 13.1 nM; in the test with Hs-578T, 31.9 nM.

As for `[2H]C([2H])([2H])Oc1cc(C(=O)Nc2cc3c(cc2Oc2cc(C)cc(C)c2)C(=O)N(C)[C@@H](CC(=O)N(C([2H])([2H])C([2H])([2H])[2H])C([2H])([2H])C([2H])([2H])[2H])C(=O)N3)c(Br)c(OC([2H])([2H])[2H])c1OC([2H])([2H])[2H]`, the GI50 in the test with HCT-116, in the test on A549 and in the test with Hs-578T was under 5 nM in each case.

For the molecule `[2H]C([2H])([2H])Oc1cc(C(=O)Nc2cc3c(cc2Oc2cc(C)cc(C)c2)C(=O)N(C)[C@@H](CC(=O)N(C([2H])([2H])[2H])C([2H])([2H])[2H])C(=O)N3)c(Br)c(OC([2H])([2H])[2H])c1OC([2H])([2H])[2H]`, the GI50 with HCT-116, with A549 and with Hs-578T was under 5 nM each time.

For `[2H]C([2H])([2H])N1C(=O)c2cc(Oc3cc(C)cc(C)c3)c(NC(=O)c3cc(OC)c(OC)c(OC)c3Br)cc2NC(=O)[C@@H]1CC(=O)N(CC)CC`, the GI50 with HCT-116 is under 5 nM; in the test on A549, under 5 nM; in the test on Hs-578T, 20.9 nM.

Regarding `[2H]C([2H])([2H])N(C(=O)C[C@H]1C(=O)Nc2cc(NC(=O)c3cc(OC)c(OC)c(OC)c3Br)c(Oc3cc(C)cc(C)c3)cc2C(=O)N1C)C([2H])([2H])[2H]`, the GI50 in the test with HCT-116, in the test with A549 and in the test with Hs-578T was under 5 nM each time.

As for `[2H]C([2H])([2H])Oc1cc(C(=O)Nc2cc3c(cc2Oc2cc(C)cc(C)c2)C(=O)N[C@@H](CC(=O)N(CC)CC)C(=O)N3)c(Br)c(OC([2H])([2H])[2H])c1OC([2H])([2H])[2H]`, the GI50 was under 5 nM in the test with HCT-116, under 5 nM in the test on A549 and 8.1 nM with Hs-578T.

Turning to `[2H]C([2H])([2H])N(C(=O)C[C@@H]1NC(=O)c2cc(Oc3cc(C)cc(C)c3)c(NC(=O)c3cc(OC)c(OC)c(OC)c3Br)cc2NC1=O)C([2H])([2H])[2H]`, the GI50 with MDA-MB-231 [1] is 22.5 nM; in the test with HCT-116, 7.1 nM; in the test with A549, under 5 nM; with MDA-MB-231 [2], 9.33 nM; with Hs-578T, under 5 nM; in the test on MDA-MB-231 [3], 9.96 nM. Further, the GI50 with MDA-MB-231 [4] amounted to 9.43 nM.

With `COc1cc(C(=O)Nc2cc3c(cc2Oc2cc(C)cc(C)c2)C(=O)N[C@@H](CC(=O)N(C)C)C(=O)N3)c(Br)c(OC)c1OC`, the GI50 with HCT-116, with A549 and with Hs-578T was under 5 nM throughout.

As to `[2H]C([2H])([2H])Oc1cc(C(=O)Nc2cc3c(cc2Oc2cc(C)cc(C)c2)C(=O)N[C@@H](CC(=O)N(CC)CC)C(=O)N3)c(Cl)c(OC([2H])([2H])[2H])c1OC([2H])([2H])[2H]`, the results for the GI50 in the test with HCT-116, with A549 and in the test on Hs-578T were 5.4 nM, 14.9 nM and 39.7 nM, respectively.

Turning to `[2H]c1c(C)c([2H])c(Oc2cc3c(cc2NC(=O)c2cc(OC)c(OC)c(OC)c2Cl)NC(=O)[C@H](CC(=O)N(CC)CC)NC3=O)c([2H])c1C`, the GI50 in the test on HCT-116 was 124 nM; with A549 it was 207 nM; in the test with Hs-578T, 292 nM.

Turning to `[2H]C([2H])([2H])Oc1cc(C(=O)Nc2cc3c(cc2Oc2cc(C)cc(C)c2)C(=O)N[C@@H](CC(=O)N(C)C)C(=O)N3)c(Br)c(OC([2H])([2H])[2H])c1OC([2H])([2H])[2H]`, the 50% growth inhibitory concentration (GI50) is 0.75 nM with MDA-MB-231 [1]; under 5 nM in the test on HCT-116; under 5 nM in the test with A549; 0.23 nM in the test with MDA-MB-231 [2]; under 5 nM in the test with Hs-578T; 25.3 nM with MDA-MB-231 [3]. Also, the GI50 with MDA-MB-231 [4] came out at 0.79 nM.

For the molecule `COc1cc(C(=O)Nc2cc3c(cc2Oc2cc(C)cc(C)c2)C(=O)N(C)[C@@H](CC(=O)N(C)C)C(=O)N3)c(Br)c(OC)c1OC`, the GI50 in the test with HCT-116, in the test with A549 and in the test on Hs-578T was under 5 nM in each case.

As for `[2H]C([2H])([2H])Oc1cc(C(=O)Nc2cc3c(cc2Oc2cc(C)cc(C)c2)C(=O)N[C@@H](CC(=O)N(C([2H])([2H])C([2H])([2H])[2H])C([2H])([2H])C([2H])([2H])[2H])C(=O)N3)c(Cl)c(OC([2H])([2H])[2H])c1OC([2H])([2H])[2H]`, the GI50 with HCT-116 is under 5 nM; in the test with A549, 11.7 nM; in the test with Hs-578T, 51.5 nM.

These data come from ChEMBL document CHEMBL5550190 (J Med Chem, 2024).
